This test addresses T1, recombinant human PTP1B (Homo sapiens, UniProt P18031).
T1 construct: without the carboxy terminal hydrophobic region (corresponding to 1-299 aa); FLAG (N); made in house; host or cells: Sf9 insect cells (baculovirus, Bac-to-Bac)
T1 sequence (P18031 1-299): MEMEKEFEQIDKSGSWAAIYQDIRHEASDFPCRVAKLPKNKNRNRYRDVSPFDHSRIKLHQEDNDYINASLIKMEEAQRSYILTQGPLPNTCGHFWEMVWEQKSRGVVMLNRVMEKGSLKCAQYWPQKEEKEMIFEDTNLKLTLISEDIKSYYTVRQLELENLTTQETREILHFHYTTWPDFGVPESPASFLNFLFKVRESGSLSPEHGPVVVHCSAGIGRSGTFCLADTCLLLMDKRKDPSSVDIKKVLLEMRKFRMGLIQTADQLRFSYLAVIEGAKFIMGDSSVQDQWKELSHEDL
In words: Inhibiting phosphotyrosine phosphatase 1B (PTP1B), in-vitro phosphatase assay. It counts as biochemical. The conditions noted are these: Table 2 Biological activity; substrate variant (phosphopeptide, p-nitrophenyl phosphate or DIFMUP) not stated. The source says: Inhibiting Phosphotyrosine Phosphatase 1B (PTP1B)
The setting up and implementation of an in-vitro assay for detecting a phosphatase-inhibiting effect of the compounds according to the invention are described below. The isolation of the enzyme preparation and the implementation of the assay are described. […]
This assay is based on releasing phosphate from a consensus substrate peptide which is detected in the nanomolar concentration range using the malachite green/ammonium molybdate method (Lanzetta, P. A., Alvarez, L. J., Reinach, P. S., Candia, O. A. Anal Biochem. 100: 95-97, 1979) as adapted for the microtiter plate format. […] After incubating at 22° C. for 30 min, in order to develop the color, the absorption at 650 nm was determined using a microtiter plate reader (Molecular Devices). Samples and blanks were measured in triplicate. The PTP1B activity was calculated as nanomoles of phosphate released per min and mg of protein using potassium phosphate as the standard. The inhibition of the recombinant hPTP1B by test substances was calculated as percentages of the phosphatase control. […]

As for `CCCCn1nc(-c2cccc(Oc3ccccc3)c2)nc2c(=O)n(C)c(=O)nc1-2` [compound 5], the IC50 amounted to 5.2 µM.
